This passage reports viability and Activity results from ChEMBL document CHEMBL1212835, “Identification of a potent and noncytotoxic inhibitor of melanin production” (Bioorg Med Chem, 2010).

SMILES strings stand for the structures. Values joined by “and” are separate entries in the source; they are usually repeats but may differ in a detail not shown here. Equal entries are not always repeated. Active and inactive are the calls of the source. The calls are words filed in the database; no cut-off is given here.

System in one data set: not listed separately
Briefly: Cytotoxicity against mouse Melan-a cells assessed as cell viability at 30 uM. The format is cell-based. The note with it: Melan-a cells, read-out: Activity.
As to `COc1cccc(NC(=O)c2cccc(C)c2)c1`, the viability at 30 µM is -0.3%.

Consider `COc1cccc(NC(=O)c2ccc(C#N)cc2)c1`, for which the viability at 30 µM is -9.4%.

As for `COc1ccc(C(=O)Nc2ccccc2OC)cc1`, the viability at 30 µM is -2.6%.

For the compound `COc1ccccc1NC(=O)c1ccccc1C`, the viability at 30 µM is 7%.

As for `CCc1ccc(C(=O)Nc2cccc(C(=O)OC)c2)cc1`, the viability at 30 µM amounted to 37%.

As for `CCc1ccc(C(=O)Nc2cc(OC)cc(OC)c2)cc1`, the viability at 30 µM came to 10.1%.

With `COC(=O)c1ccccc1NC(=O)c1ccccc1C`, the viability at 30 µM turned out to be 9.7%.

Regarding `COc1cccc(NC(=O)c2ccco2)c1`, the viability at 30 µM turned out to be 0.4%.

For `COC(=O)c1ccccc1NC(=O)c1cccc(C)c1`, the viability at 30 µM stood at 29.6%.

`Cc1cccc(NC(=O)c2ccc(C#N)cc2)c1`: the viability at 30 µM stood at 11.1%.

For the compound `CC(=O)c1ccc(NC(=O)c2cccc(C)c2)cc1`, the viability at 30 µM was -5.9%.

Turning to `COc1ccccc1NC(=O)c1ccc(C)cc1`, the viability at 30 µM was determined as 18.5%.

`COC(=O)c1cccc(NC(=O)c2ccc(C)cc2)c1`: the viability at 30 µM was 16.4%.

As for `COC(=O)c1ccc(NC(=O)c2ccc(C#N)cc2)cc1`, the viability at 30 µM was 14.2%.

For the compound `COc1ccc(C(=O)Nc2ccc(OC)cc2OC)cc1`, the viability at 30 µM was -9.4%.

For `COc1cccc(C(=O)Nc2cc(C)cc(C)c2)c1`, the viability at 30 µM came out at 32%.

For `COc1ccc(OC)c(NC(=O)c2cccc(C)c2)c1`, the viability at 30 µM is 0.3%.

Turning to `COc1cccc(NC(=O)c2ccc(C)cc2)c1`, the viability at 30 µM came to 2.7%.

Take `Cc1cc(C)cc(NC(=O)c2cccc(C)c2)c1`: the viability at 30 µM was 6%.

`N#Cc1ccc(C(=O)Nc2cc(C(F)(F)F)cc(C(F)(F)F)c2)cc1`: the viability at 30 µM stood at 33.3%.

As to `COc1cccc(C(=O)Nc2cc(OC)ccc2OC)c1`, the viability at 30 µM turned out to be 17.8%.

As to `CC(=O)c1ccc(NC(=O)c2ccc(C#N)cc2)cc1`, the viability at 30 µM is 6.9%.

For `COC(=O)c1cccc(NC(=O)c2cccc(C)c2)c1`, the viability at 30 µM was found to be 10.5%.

In the case of `COc1cccc(C(=O)Nc2cc(C(F)(F)F)cc(C(F)(F)F)c2)c1`, the viability at 30 µM was 9%.

Consider `COc1cccc(C(=O)Nc2ccc(OC)cc2OC)c1`, for which the viability at 30 µM is -3.9%.

In the case of `CCc1ccc(C(=O)Nc2ccc(C(=O)OC)cc2)cc1`, the viability at 30 µM worked out at 2%.

For the compound `COc1ccc(C(=O)Nc2cc(OC)cc(OC)c2)cc1`, the viability at 30 µM came to 13.6%.

With `COc1cc(NC(=O)c2ccccc2C)cc(OC)c1`, the viability at 30 µM worked out at 6.4%.

On to `COc1ccc(NC(=O)c2ccc(OC)cc2)cc1`, for which the viability at 30 µM is -10.6%.

With `COc1cccc(NC(=O)c2ccccc2C)c1`, the viability at 30 µM was determined as 13.4%.

With `COC(=O)c1ccccc1NC(=O)c1ccco1`, the viability at 30 µM is -2.3%.

For `CC(=O)c1ccc(NC(=O)c2ccco2)cc1`, the viability at 30 µM was -2.6%.

With `COc1ccc(NC(=O)c2c(OC)cccc2OC)cc1`, the viability at 30 µM amounted to 10.2%.

For `CCc1ccc(C(=O)Nc2ccc(OC)cc2OC)cc1`, the viability at 30 µM is -6.5%.

Consider `Cc1cccc(C(=O)Nc2cc(C(F)(F)F)cc(C(F)(F)F)c2)c1`, for which the viability at 30 µM was -2.3%.

In the case of `COc1ccc(NC(=O)c2ccccc2C)cc1`, the viability at 30 µM was determined as 12.8%.

For the compound `Cc1ccc(NC(=O)c2ccc(C)cc2)cc1`, the viability at 30 µM was determined as 13.9%.

On to `COc1cccc(C(=O)Nc2ccc(C(C)=O)cc2)c1`, for which the viability at 30 µM is -5%.

In the case of `CCCCOc1ccc(NC(=O)c2ccc(OC)cc2)cc1`, the viability at 30 µM is 1%.

Still in this data set, the particulars now being: melan-a, 30 µM.
Turning to `CCc1ccc(C(=O)Nc2cc(C)cc(C)c2)cc1`, the Activity was 41.5% and > 90%.

Another data set relates to Cavia porcellus. Briefly: Antimelanogenic activity in guinea pig skin assessed as inhibition of UVB-induced pigmentation at 10 ug administered topically bid for 4 weeks. Type of data set: functional, organism-based.
Conditions: not given
With `COc1cccc(C(=O)Nc2cc(C)cc(C)c2)c1`, the result was Active.
